Blank lines part the entries; values can stand above or below the compound they belong to.
Key:
Assay type in all cases: biochemical
[1] = target: T1, KDM4A (Homo sapiens, UniProt O75164); assay: fluorescence demethylase enzymatic assay, single dose […]
T1 sequence (O75164 2-1064): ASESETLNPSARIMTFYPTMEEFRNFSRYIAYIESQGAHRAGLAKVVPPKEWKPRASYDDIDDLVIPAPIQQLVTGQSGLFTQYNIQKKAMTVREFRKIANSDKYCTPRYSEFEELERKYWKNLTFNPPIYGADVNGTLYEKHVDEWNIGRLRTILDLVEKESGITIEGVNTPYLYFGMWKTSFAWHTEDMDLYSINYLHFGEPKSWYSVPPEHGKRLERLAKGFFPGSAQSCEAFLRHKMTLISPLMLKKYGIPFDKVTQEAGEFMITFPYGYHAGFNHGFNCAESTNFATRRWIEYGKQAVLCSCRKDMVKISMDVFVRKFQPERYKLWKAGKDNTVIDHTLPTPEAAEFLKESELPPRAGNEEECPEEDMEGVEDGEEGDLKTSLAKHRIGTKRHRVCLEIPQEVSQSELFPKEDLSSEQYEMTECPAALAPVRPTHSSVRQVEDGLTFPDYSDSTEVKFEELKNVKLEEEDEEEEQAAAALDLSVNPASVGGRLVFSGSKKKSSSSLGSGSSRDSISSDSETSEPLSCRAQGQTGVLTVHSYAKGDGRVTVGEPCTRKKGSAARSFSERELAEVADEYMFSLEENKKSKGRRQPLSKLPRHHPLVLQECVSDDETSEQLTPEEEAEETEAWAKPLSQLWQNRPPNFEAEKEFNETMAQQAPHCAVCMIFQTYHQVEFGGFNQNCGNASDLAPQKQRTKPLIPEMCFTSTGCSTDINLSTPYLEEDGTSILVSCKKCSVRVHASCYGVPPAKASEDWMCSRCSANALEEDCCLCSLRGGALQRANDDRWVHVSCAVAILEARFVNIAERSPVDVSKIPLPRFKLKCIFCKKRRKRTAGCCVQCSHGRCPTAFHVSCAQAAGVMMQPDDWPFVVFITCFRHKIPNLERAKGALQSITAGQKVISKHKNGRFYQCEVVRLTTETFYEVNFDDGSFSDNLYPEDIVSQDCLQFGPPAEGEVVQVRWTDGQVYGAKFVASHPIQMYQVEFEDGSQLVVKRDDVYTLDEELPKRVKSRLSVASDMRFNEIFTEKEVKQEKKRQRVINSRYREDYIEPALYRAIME

[2] = target: T1, KDM4A; assay: KDM4A enzymatic screening assay and fluorescence assay at […]
[3] = target: T2, KDM4C (Homo sapiens, UniProt Q9H3R0); assay: fluorescence demethylase enzymatic assay, dose curve
T2 construct: KDM4C-GST recombinant enzyme
T2 sequence (Q9H3R0 1-1056): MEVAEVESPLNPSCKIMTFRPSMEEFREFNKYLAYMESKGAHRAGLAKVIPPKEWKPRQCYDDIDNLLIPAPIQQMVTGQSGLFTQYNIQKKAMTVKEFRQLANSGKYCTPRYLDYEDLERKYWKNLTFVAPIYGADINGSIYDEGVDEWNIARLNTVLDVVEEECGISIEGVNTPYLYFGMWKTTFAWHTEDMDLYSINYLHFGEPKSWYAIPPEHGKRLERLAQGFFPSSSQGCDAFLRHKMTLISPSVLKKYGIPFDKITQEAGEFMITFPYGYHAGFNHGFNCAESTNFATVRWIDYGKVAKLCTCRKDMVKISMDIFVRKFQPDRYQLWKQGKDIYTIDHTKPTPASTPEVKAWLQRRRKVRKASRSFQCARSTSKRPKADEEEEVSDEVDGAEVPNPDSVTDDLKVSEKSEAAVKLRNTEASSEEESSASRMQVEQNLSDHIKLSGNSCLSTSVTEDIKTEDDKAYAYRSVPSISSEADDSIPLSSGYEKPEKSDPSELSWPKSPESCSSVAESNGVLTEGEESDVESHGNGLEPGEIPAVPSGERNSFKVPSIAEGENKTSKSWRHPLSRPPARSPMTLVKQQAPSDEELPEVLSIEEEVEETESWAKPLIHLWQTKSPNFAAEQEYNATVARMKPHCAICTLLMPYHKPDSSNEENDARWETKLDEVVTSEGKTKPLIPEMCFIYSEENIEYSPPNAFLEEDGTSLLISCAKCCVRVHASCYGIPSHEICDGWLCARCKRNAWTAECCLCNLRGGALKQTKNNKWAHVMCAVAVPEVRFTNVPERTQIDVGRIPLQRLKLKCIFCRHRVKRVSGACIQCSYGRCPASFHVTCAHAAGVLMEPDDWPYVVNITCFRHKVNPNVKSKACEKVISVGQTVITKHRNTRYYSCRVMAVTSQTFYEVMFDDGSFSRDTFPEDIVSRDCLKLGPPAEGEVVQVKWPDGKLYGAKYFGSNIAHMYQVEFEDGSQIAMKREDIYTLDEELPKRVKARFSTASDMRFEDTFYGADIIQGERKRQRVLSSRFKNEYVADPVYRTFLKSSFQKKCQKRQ

[4] = target: T1, KDM4A; assay: AlphaLISA JMJD2A homogeneous demethylase assay, […] concentrations (fluorescence assay gave IC50 […])
[5] = target: T3, KDM4B (Homo sapiens, UniProt O94953); assay: fluorescence demethylase enzymatic assay, dose curve
T3 construct: KDM4B-GST recombinant enzyme
T3 sequence (O94953 1-1096): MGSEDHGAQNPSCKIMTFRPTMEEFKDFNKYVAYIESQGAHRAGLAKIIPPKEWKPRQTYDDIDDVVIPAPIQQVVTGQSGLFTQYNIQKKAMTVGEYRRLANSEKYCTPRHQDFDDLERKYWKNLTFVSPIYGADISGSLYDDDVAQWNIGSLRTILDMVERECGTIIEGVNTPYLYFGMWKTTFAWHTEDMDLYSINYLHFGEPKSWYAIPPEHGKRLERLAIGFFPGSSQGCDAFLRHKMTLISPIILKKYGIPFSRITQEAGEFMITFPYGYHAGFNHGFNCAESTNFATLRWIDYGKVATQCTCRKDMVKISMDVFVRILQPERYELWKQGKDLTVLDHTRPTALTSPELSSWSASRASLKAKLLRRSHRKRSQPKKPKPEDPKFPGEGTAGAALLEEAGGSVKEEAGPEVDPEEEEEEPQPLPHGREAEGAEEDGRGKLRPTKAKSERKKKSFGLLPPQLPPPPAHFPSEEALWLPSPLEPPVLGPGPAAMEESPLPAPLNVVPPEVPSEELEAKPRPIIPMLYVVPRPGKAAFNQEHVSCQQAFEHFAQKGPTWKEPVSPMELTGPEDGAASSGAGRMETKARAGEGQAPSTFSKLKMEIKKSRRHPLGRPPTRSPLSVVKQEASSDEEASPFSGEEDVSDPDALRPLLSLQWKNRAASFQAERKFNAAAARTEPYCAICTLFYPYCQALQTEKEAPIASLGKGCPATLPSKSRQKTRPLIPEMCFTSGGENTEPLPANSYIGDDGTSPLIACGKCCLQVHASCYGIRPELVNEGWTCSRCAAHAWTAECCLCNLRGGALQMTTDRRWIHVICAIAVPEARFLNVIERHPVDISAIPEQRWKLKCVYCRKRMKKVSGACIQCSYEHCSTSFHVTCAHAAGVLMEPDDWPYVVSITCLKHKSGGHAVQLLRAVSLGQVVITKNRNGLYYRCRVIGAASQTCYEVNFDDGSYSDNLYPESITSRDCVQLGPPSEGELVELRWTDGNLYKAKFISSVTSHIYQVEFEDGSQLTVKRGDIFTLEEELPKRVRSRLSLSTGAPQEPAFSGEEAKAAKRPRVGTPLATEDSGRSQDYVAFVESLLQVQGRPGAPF

[6] = target: T4, KDM4D (Homo sapiens, UniProt Q6B0I6); assay: as above
T4 construct: KDM4D-GST recombinant enzyme
T4 sequence (Q6B0I6 1-523): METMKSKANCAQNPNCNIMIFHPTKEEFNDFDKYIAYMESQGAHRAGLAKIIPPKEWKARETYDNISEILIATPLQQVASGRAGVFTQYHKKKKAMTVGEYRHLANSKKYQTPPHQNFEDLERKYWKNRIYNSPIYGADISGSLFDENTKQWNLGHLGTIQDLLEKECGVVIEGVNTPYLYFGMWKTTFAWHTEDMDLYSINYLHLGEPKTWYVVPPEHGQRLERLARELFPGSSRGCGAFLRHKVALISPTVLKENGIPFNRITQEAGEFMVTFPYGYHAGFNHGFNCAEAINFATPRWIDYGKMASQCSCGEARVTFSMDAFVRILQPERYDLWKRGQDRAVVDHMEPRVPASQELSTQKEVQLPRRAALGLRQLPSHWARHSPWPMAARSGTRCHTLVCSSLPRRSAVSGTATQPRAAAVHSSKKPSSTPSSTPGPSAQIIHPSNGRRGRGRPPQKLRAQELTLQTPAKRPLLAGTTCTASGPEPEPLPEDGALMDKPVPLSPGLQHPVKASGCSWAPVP

inhibition at 50 µM [1]: 80%
SMILES: O=C(O)c1cc(O)c(=O)c2c(O)c(O)cc(Br)c2c1 [9bc, 1-bromo-3,4,6-trihydroxy-5-oxo-5H-benzo[7]annulene-8-carboxylic acid]

KDM4A enzymatic screening assay and fluorescence assay at 50 μM [2]: Purpurogallin 9aa
SMILES: O=c1c(O)cccc2cc(O)c(O)c(O)c12 [9aa, 2,3,4,6-tetrahydroxy-5H-benzo[7]annulen-5-one]

IC50 [3]: 38.9 µM
IC50 [4]: 10.1 µM
IC50 [5]: 35.9 µM
IC50 [6]: 28.5 µM
SMILES: O=C(O)c1cc(O)c(=O)c2c(O)c(O)cc(-c3ccccc3)c2c1 [9bf, 3,4,6-trihydroxy-5-oxo-1-phenyl-5H-benzo[7]annulene-8-carboxylic acid]

inhibition at 50 µM [1]: 50%
SMILES: O=c1c(O)cccc2c(Br)cc(O)c(O)c12 [9ac, 1-bromo-3,4,6-trihydroxy-5H-benzo[7]annulen-5-one]
